Key:
[1] = system: amnesia caused by acute normobaric hypoxic hypoxia with hypercapnia; assay: Open-field method after acute normobaric hypoxic hypoxia with hypercapnia; format: in vivo, mice; details: i.p. once a day for 5 days, Melatonin 5 mg, Memantin 10 mg mono-use
Experimental: (§1) For this, the active substances Melatonin 3 mg/Memantin 10 mg, Melatonin 5 mg/Memantin 20 mg, Melatonin 10 mg/Memantin 20 mg were taken, and doses recommended for human beings were converted into doses adapted for mice according to the formula “(active substance/70(average weight of a human being))×7”. Then the compositions were dissolved in 5 mL of the solution and, according to the given formula, introduced to animals intraperitoneally once a day for 5 days.
The antiamnestic action of the compositions was also carried out on an model of amnesia caused by acute normobaric hypoxic hypoxia with hypercapnia in a so-called hermetic chamber on white non-linear male mice having a weight of 20-24 Γ with the CPAR development in the animals according to the open-field method. After CPAR teaching the animals were put in the hermetic chamber for 16-18 minutes, depending on manifestation of hypoxia symptoms and weight. This model was reproduced by placing mice, one by one, in glass jars of equal volume that were hermetically sealed. With consumption of oxygen its concentration in the jar air and in the organism lowered and the quantity of carbon dioxide, on the contrary, raised. As the result, acute hypoxic hypoxia with hypercapnia developed in the animals. The animals of the control group were subjected to false hypoxia, that is, the mice were put in glass jars of equal volume that were not closed. The substances under study and the sodium chloride isotonic solution (control) were used in comparison with Melatonin 5 mg (mono-use) and Memantin 10 mg (mono-use) in accordance with the above formula for adapting to animal models by intraperitoneal introduction, before teaching the mice, once a day for 5 days.

[2] = system: amnestic effect caused by mice swimming in cold water, simultaneously rotating wheel to the point of exhaustion; assay: CPAR, amnesia induced by swimming in cold water with wheel rotation to the point of exhaustion; format: in vivo; details: Melatonin 5 mg, Memantin 10 mg mono-use
Experimental: as §1
(§2) The CPAR test is the main model for evaluating substance influences on formation and replication of short-time memory in a normal condition and in an abnormal condition, i.e., induced amnesia. The CPAR is the most informative method among the methods that are used today for evaluating efficiency of substances with influence on the CNS of mammals (see, “Manual for Experimental (Pre-Clinical) Studies of New Pharmacological Substances”, 2000). The CPAR (conditioned passive avoidance reflex in a dark, light chamber) was taught to the mice on the basis of electrodermal response according to the method proposed by Cumin et al. (1982) with due regard to the recommendations given by Mondadori et al. (1990). The installation for mice, as produced by Lafayette Instrument Co., USA, was a black chamber with the electrode floor and a white plastic platform that was arranged on the floor in the center of the chamber. The mice, one by one, were put onto the plastic platform. The animals went/jumped down onto the electrode floor where they received an electric current shock, i.e., punishment. Electric current was supplied after the time when an animal stood on the floor with all its four legs. The natural response of the animals is to go back to the current-free or safe platform. After several minutes of teaching, 5 minutes on the average, mice developed CPAR and remained on the safe platform. Tests for memorizing CPAR were conducted in successive time intervals after amnesic action. In a case where an animal went/jumped down onto the platform within 1 minute, it was recorded as having retrograde amnesia of the passive avoidance skill. The compositions were studied in comparison with Melatonin 5 mg (mono-use) and Memantin 10 mg (mono-use), according to the above formula for adapting to animal models.
The antiamnestic action of the compositions on the amnesia model induced by swimming of mice in cold water with wheel rotation to the point of exhaustion. Studies were conducted on white non-linear male mice having a weight of 20-24 g with developing CPAR in the animals as in the previous studies. The animals were put, one by one, into a container filled with water and equipped with a rotating wheel. After teaching CPAR, the mice swam in cold water, simultaneously rotating the wheel to the point of exhaustion. The CPAR maintenance was checked in successive time intervals. As false imitation of swimming in cold water, mice were put onto a pad consisting of wet cold wadding. The substances and an isotonic solution of sodium chloride (control) were studied in comparison with Melatonin 5 mg (mono-use) and Memantin 10 mg (mono-use), in accordance with the above formula for adapting to animal models, by intraperitoneal introduction before teaching mice, once a day for 5 days.

[3] = system: amnesia in mice, as caused by electroconvulsive shock (ECS); assay: Conditioned passive avoidance reflex (CPAR), amnesia caused by electroconvulsive shock (ECS); format: in vivo; details: for Latent time of entering into the dark chamber / Number of mice not entered into the dark chamber, % / Number of mice taught to CPAR: + ECS, i.p. once a day for 5 days, Melatonin 5 mg, Memantin 10 mg mono-use; for Number of mice taught to CPAR: count of mice, human doses converted to mice; for Effect on the amnestic action of ECS (in words): summary of Tables 1-2, p<0.05 for the compositions
Experimental: as §1
The action of the compositions on learning and memory factors were studied on white non-linear male mice having a weight 20+/−4 g, using the conditioned passive avoidance reflex (CPAR) of electroconvulsive shock (ECS) (Ya. Buresh et al., 1991; K. M. Dyumaev et al., 1995).
Electroconvulsive shock (ECS) was used as the amnesic action, the electric current parameters were: 50 Hz, 50 mA, 0.3 s, which was applied to mice with the use of electrodes in the shape of clips fixed on auricles, transpineally, just after teaching CPAR (see, “Manual for Experimental (Pre-Clinical) Studies of New Pharmacological Substances”, 2000). Pseudo-electroconvulsive shock was caused to the animals by applying pineal electrodes for causing ECS without applying electric current. The mice were tested for maintaining CPAR in certain time intervals after ECS.
as §2

Row | Compound | Horizontal motion activity ([1]; 1st day after operation) | Inspection of holes ([1]; 1st day after operation) | Vertical motion activity ([1]; 1st day after operation) | Horizontal motion activity ([1]; 3rd day after operation) | Inspection of holes ([1]; 3rd day after operation) | Vertical motion activity ([1]; 3rd day after operation) | Horizontal motion activity ([1]; 7th day after operation) | Inspection of holes ([1]; 7th day after operation) | Vertical motion activity ([1]; 7th day after operation) | Horizontal motion activity ([1]; 10th day after operation) | Inspection of holes ([1]; 10th day after operation) | Vertical motion activity ([1]; 10th day after operation) | Latent time of entering into the dark chamber ([2]; 1 day after teaching) [s] | Number of mice not entered into the dark chamber, % ([2]; 1 day after teaching) [%] | Latent time of entering into the dark chamber ([2]; 3 days after teaching) [s] | Number of mice not entered into the dark chamber, % ([2]; 3 days after teaching) [%] | Latent time of entering into the dark chamber ([2]; 7 days after teaching) [s] | Number of mice not entered into the dark chamber, % ([2]; 7 days after teaching) [%] | Latent time of entering into the dark chamber ([2]; 10 days after teaching) [s] | Number of mice not entered into the dark chamber, % ([2]; 10 days after teaching) [%] | also measured
1 | COc1ccc2[nH]cc(CCNC(C)=O)c2c1 [Melatonin, N-acetyl-5-methoxytriptamine] | 6.9 ± 2.3 | 1.7 ± 0.6 | 3.2 ± 1.2 | 8.2 ± 1.4 | 1.9 ± 0.8 | 3.5 ± 0.9 | 8.3 ± 2.8 | 2.4 ± 0.5 | 3.2 ± 1.3 | 8.1 ± 1.7 | 2.6 ± 2.9 | 3.6 ± 2.3 | 109.3 ± 9.8 | 61.5 | 105.4 ± 13.5 | 46.1 | 104.6 ± 15.1 | 38.5 | 100.9 ± 17.4 | 30.7 | Latent time of entering into the dark chamber ([3]; 1 day after teaching): 108.3 ± 21.7 s; Number of mice not entered into the dark chamber, % ([3]; 1 day after teaching): 66.7%; Latent time of entering into the dark chamber ([3]; 3 days after teaching): 105.6 ± 17.4 s; Number of mice not entered into the dark chamber, % ([3]; 3 days after teaching): 58.3%; Latent time of entering into the dark chamber ([3]; 7 days after teaching): 103.3 ± 21.2 s; Number of mice not entered into the dark chamber, % ([3]; 7 days after teaching): 58.3%; Latent time of entering into the dark chamber ([3]; 10 days after teaching): 103.2 ± 20.6 s; Number of mice not entered into the dark chamber, % ([3]; 10 days after teaching): 33.3%; Number of mice taught to CPAR [3]: 9; Effect on the amnestic action of ECS (in words) [3]: changed the amnestic action
2 | CC12CC3CC(C)(C1)CC(N)(C3)C2 [Memantin] | 7.1 ± 2.7 | 2.1 ± 1.1 | 3.7 ± 1.9 | 8.9 ± 4.9 | 2.5 ± 1.1 | 3.3 ± 1.2 | 9.6 ± 3.4 | 3.0 ± 2.7 | 3.7 ± 1.8 | 11.3 ± 1.7 | 3.2 ± 1.3 | 4.1 ± 2.5 | 111.3 ± 22.3 | 41.6 | 115.9 ± 16.5 | 50 | 117.4 ± 28.1 | 66.6 | 118.0 ± 23.3 | 66.6 | Latent time of entering into the dark chamber ([3]; 1 day after teaching): 104.6 ± 19.2 s; Number of mice not entered into the dark chamber, % ([3]; 1 day after teaching): 36.3%; Latent time of entering into the dark chamber ([3]; 3 days after teaching): 109.5 ± 22.1 s; Number of mice not entered into the dark chamber, % ([3]; 3 days after teaching): 54.5%; Latent time of entering into the dark chamber ([3]; 7 days after teaching): 110.1 ± 18.9 s; Number of mice not entered into the dark chamber, % ([3]; 7 days after teaching): 63.6%; Latent time of entering into the dark chamber ([3]; 10 days after teaching): 109.8 ± 21.1 s; Number of mice not entered into the dark chamber, % ([3]; 10 days after teaching): 63.6%; Number of mice taught to CPAR [3]: 8; Effect on the amnestic action of ECS (in words) [3]: changed the amnestic action

Reference: patent US9999614B2, “Combination for the prophylaxis and treatment of behavioural, mental, and cognitive disorders” (LTD “VALENTA-INTELLEKT”, priority 2012, dated 2018)
